These results are taken from patent publication US6544727B1, “Methods and devices for the removal of psoralens from blood products” (Cerus Corporation, priority 1995, dated 2003).

Structures are written as SMILES.

Data set [1] in a line: HPLC retention time as rough estimate of hydrophobicity. The data set is classed as physicochemical. Conditions: C-18 reversed phase, methanol/KH2PO4 gradient. How it is done:
Adsorption data were then obtained by HPLC analysis on the test and control samples. Specifically, a 200 μl sample volume of PC was removed from each tube following the incubation period (special care being taken to ensure that no adsorbent particles were removed with the test samples). […] The addition of methanol lyses platelets and precipitates plasma proteins so that psoralen contained within the platelets is not excluded by the assay.
Since each of the psoralens were analyzed using the same type of BPLC assay, one can use the psoralens' relative retention times to rank them according to increasing hydrophobicity. […] Strong interactions with cells or plasma proteins could compete with adsorption, thereby interfering with resin binding.

A short description of data set [2]: Adsorption capacity of Amberlite adsorbents for Psoralens A, B and C from PC (Table V). The data set is classed as physicochemical. Conditions: batch adsorption. How it is done: Stock solutions (15 mM) of each psoralen ([…], and C) were prepared in DMSO. […] Thereafter, control samples and test samples were prepared for HPLC analysis. Test samples were prepared by adding a 3.0 mL aliquot of each dilution to a 5 mL polypropylene tube containing 0.1 g of adsorbent; control samples were prepared in an analogous manner with the exception that the adsorbent was omitted. The test and control samples were then incubated for 6 hours at 22° C. by rotating gently on a mixer (Barnstead, Thermolyne Model 400110). […] Adsorption data were then obtained by HPLC analysis on the test and control samples. Specifically, a 200 μl sample volume of PC was removed from each tube following the incubation period (special care being taken to ensure that no adsorbent particles were removed with the test samples). […] The addition of methanol lyses platelets and precipitates plasma proteins so that psoralen contained within the platelets is not excluded by the assay. […] The slopes of the calibration curves were determined by linear least square method (y-intercept constrained to zero). […] The amount (μmoles) of psoralen which the adsorbent had removed from the PC was calculated [V(Co-Cf)]. […] As previously discussed, the slope of the adsorbent isotherm, K (L/g), is termed the adsorption constant and can be determined by a linear regression of the adsorption data.

As to `CCN(CC)CCCOc1c2occc2c(Br)c2ccc(=O)oc12` [Psoralen C, 5-bromo-8-(diethylaminopropyloxy)-psoralen], in data set [1], the “HPLC retention time (rough estimate of hydrophobicity)” value is recorded as 12.0 min. Moreover, the “ease of removal from PC (in words)” value in data set [2] is reported as “most easily removed from PC”.
